# Data reported in patent US20170050945A1, “COMPOSITIONS AND METHODS FOR THE TREATMENT OF SARCOIDOSIS” (INSMED INCORPORATED, priority 2015, published 2017).
# Tests used:
# [1] = test system: LPS-stimulated TNF-α production in THP-1 derived human macrophages; assay: Inhibition of LPS-stimulated TNF-α production in human THP-1 derived macrophages, TNF ELISA; format: cell-based; conditions: 4 h pre-incubation, then 100 pg/mL LPS for 16 h
# Description: (§1) THP-1 cells were cultured in media with 50 ng/mL phorbol myristate acetate (PMA) for 24 h and then in fresh media without PMA for an additional 24 h. […] The well plates were treated with mycophenolate sodium at concentrations ranging from 0.03 to 10 μm and incubated for a period for 4 h. After this period, LPS was added to each well plate at a concentration of 100 pg/mL and the LPS-, mycophenolate-treated well plates were incubated for 16 h. After 16 h, the cell supernatants were collected for TNF measurement and the remaining macrophages were assessed for cytotoxicity. TNF concentrations were assayed using a human TNF ELISA kit available from ThermoFisher. Cytotoxicity was determined using the CellTox green assay available from Promega.
# (§2) Inhibition of TNF-α production was calculated as a percentage of LPS-stimulated TNF production in the absence of mycophenolate sodium.
# [2] = test system: rat alveolar macrophages (NR8383); assay: Cytotoxicity toward rat alveolar macrophages (NR8383), CellTox green assay; format: cell-based; conditions: NR8383 cells, any concentration tested (0.15 to about 15 μm), 20 h
# Description: (§3) Rat alveolar macrophages (NR8383) were co-treated with 25 ng/mL lipopolysaccharide (LPS) and mycophenolate sodium at concentrations ranging from 0.15 to about 15 μm for a period of 20 h. After this period, the cell supernatants were collected for TNF measurement and the remaining macrophages were assessed for cytotoxicity. TNF concentrations were assayed using a rat TNF ELISA kit available from ThermoFisher. Cytotoxicity was determined using the CellTox green assay available from Promega.
# as §2
# [3] = test system: THP-1 derived human macrophages; assay: Cytotoxicity toward human THP-1 derived macrophages, CellTox green assay; format: cell-based
# Description: as §1, §2
# [4] = test system: LPS-stimulated TNF-α production in rat alveolar macrophages (NR8383); assay: Inhibition of LPS-stimulated TNF-α production in rat alveolar macrophages (NR8383), TNF ELISA; format: cell-based; conditions: Macrophage, NR8383 cells, co-treated with 25 ng/mL LPS, 20 h
# Description: as §3, §2
# [5] = molecular target: T1, Human Inosine 5′-Monophosphate Dehydrogenase 1 (IMPDH) (Homo sapiens, UniProt P20839); assay: Inhibition of human inosine 5′-monophosphate dehydrogenase (IMPDH assay kit); format: biochemical
# T1 construct: purchased R&D Systems 8904DH
# Source text: Human Inosine 5′-Monophosphate Dehydrogenase 1 (IMPDH) catalyzes the nicotinamide adenine dinucleotide (NAD)-dependent oxidation of inosine-5′-monophosphate (IMP) to xanthosine-5′-monophosphate (XMP), which is the committed step in de novo guanosine nucleotide biosynthesis. B and T lymphocytes depend on IMPDH activity to generate the guanosine nucleotide levels needed to initiate a proliferative response to mitogen or antigen.
# A comparison of the ability of MPA and hexadecyl mycophenolate (mono-C16MP) to inhibit IMPDH was undertaken.
# IMPDH (R&D Systems 8904DH) was incubated with mycophenolic acid (MPA) and, separately, mono-C16MP at concentrations ranging from about 0.015 to 15 μM. The IMPDH activity was determined using a BMR Service IMPDH assay kit (E-119).
# Inhibition of IMPDH was calculated as a percentage of IMPDH activity in the absence of MPA.
# [6] = Lung to plasma MPA ratio after inhaled dosing of MPS, MMF or mono-C16MP in mice; format: in vivo; conditions: inhalation, C57BL/6 mice, 0-6 h post-dose
# Description: Studies to determine the lung to plasma ratio obtained by inhalation of mycophenolate sodium (MPS), mycophenolate mofetil (MMF), and hexadecyl mycophenolate (mono-C16MP) were conducted.
# In each study group, C57BL/6 mice were given MPS, MMF or mono-C16MP by inhalation and the lung and plasma mycophenolic acid (MPA) concentrations were measured at t=0, 0.5, 1, 2, 4, and 6 h post-dose.
# For each mouse in the study, the lung to plasma MPA ratios were calculated; the individual calculated ratios were averaged for each treatment group and the average values were plotted, shown in FIG. 6.
# T1 sequence (P20839 whole entry): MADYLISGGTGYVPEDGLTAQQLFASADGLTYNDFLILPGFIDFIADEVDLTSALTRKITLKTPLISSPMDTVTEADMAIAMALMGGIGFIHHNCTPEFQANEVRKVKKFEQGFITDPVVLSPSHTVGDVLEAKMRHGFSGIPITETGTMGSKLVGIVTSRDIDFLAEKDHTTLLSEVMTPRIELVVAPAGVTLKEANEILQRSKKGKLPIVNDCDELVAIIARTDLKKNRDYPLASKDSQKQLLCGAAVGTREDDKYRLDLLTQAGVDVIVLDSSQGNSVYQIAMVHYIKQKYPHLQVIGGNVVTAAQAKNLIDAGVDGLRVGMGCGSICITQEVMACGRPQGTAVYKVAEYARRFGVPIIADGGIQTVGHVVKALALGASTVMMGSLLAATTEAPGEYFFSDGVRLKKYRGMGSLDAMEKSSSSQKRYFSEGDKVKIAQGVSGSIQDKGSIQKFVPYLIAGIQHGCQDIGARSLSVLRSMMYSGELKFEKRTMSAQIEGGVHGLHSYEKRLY
smiles,measurement,setting,value
COc1c(C)c2c(c(O)c1C/C=C(\C)CCC(=O)O)C(=O)OC2 [mycophenolate sodium],Emax,[1],67%
same,IC50,[1],1400 nM
same,Cytotoxicity,[2],no significant cytotoxicity
same,Cytotoxicity,"[3]; 3 μM, P<0.05",6.6%
same,Cytotoxicity,"[3]; 10 μM, P<0.05",8.9%
same,Cytotoxicity,[3]; concentrations <3 μM,no significant cytotoxicity
same,Emax,[4],54%
same,IC50,[4],1500 nM
"COc1c(C)c2c(c(O)c1C/C=C(\C)CCC(=O)O)C(=O)OC2 [MPA, (4E)-6-(4-hydroxy-6-methoxy-7-methyl-3-oxo-1,3-dihydro-2-benzofuran-5-yl)-4methylhex-4-enoic acid]",IC50,[5],140 nM
"CCCCCCCCCCCCCCCCOC(=O)CC/C(C)=C/Cc1c(O)c2c(c(C)c1OC)COC2=O [mono-C16MP, hexadecyl mycophenolate]",Inhibition of IMPDH,[5]; about 0.015 to 15 μM tested,does not inhibit IMPDH in a concentration-dependent manner
same,Lung to plasma exposure ratio of MPA compared to the ratio obtained with MPS or MMF,[6],higher lung to plasma exposure ratio
